Data: US20250129027A1 (APOGEE PHARMACEUTICALS, INC., priority 2023, published 2025)

Tests used:
[1] = target: human recombinant MAGL (Homo sapiens (Human), UniProt Q99685); experiment: In vitro inhibition of MAGL activity (inhibitor screening kit, 4-nitrophenylacetate); assay type: biochemical; conditions: human recombinant MAGL
Description: The inhibitory effect of the compounds on activity of human recombinant MAGL was also studied using a commercial inhibitor screening kit (Cayman Chemicals). In brief, MAGL hydrolyzes 4-nitrophenylacetate resulting in a yellow product, 4-nitrophenol with an absorbance at 405-412 nm, while the inhibitor will inhibit the MAGL activity and thus reduce the yellow signal. The absorbance of the yellow product can be analyzed using the plate reader. Inhibition is calculated as a percentage of the treated sample over the non-treated MAGL control based on the signal values.

[2] = target: human recombinant FAAH (Homo sapiens (Human), UniProt O00519); experiment: In vitro inhibition of FAAH activity (fluorescent inhibitor screening kit, AMC arachidonoyl amide); assay type: biochemical; conditions: human recombinant FAAH; read-out: Inhibition on FAAH activity (IC50)
Text: The inhibitory effect of compounds of Formula (I-IV) on the activity of human recombinant FAAH was studied using a commercial inhibitor screening kit (Cayman Chemicals, Godlewski et al., 2010 [19]). In brief, FAAH hydrolyzes AMC arachidonoyl amide resulting in the release of the fluorescent product, while the inhibitor will inhibit the FAAH activity and thus reduce the fluorescent signal. The resulting fluorophore can be analyzed using an excitation wavelength of 340-360 nm and an emission wavelength of 450-465 nm by a plate reader (Synergy H1, Biotek). Inhibition is calculated as a percentage of the treated sample over the non-treated control based on the signal values, and where possible, a range of concentrations of compounds was tested to find the IC50 values (i.e. the concentration of compound that inhibited 50% FAAH activity).

Chain of human recombinant FAAH (O00519 whole entry): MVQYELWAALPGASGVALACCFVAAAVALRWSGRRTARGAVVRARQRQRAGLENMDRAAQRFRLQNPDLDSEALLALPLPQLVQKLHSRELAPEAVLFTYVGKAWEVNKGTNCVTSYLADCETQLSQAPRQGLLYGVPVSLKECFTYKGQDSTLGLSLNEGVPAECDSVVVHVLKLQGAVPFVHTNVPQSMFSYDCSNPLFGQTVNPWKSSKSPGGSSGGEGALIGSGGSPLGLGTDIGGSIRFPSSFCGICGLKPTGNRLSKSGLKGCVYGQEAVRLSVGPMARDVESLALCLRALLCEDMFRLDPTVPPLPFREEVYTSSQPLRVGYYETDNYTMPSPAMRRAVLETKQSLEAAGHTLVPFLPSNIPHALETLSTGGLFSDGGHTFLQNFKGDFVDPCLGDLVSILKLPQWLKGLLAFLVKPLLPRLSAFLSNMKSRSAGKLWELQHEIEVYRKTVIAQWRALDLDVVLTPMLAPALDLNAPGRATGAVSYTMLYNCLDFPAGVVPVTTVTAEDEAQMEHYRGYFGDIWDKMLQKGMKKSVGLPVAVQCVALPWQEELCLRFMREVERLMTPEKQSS
Chain of human recombinant MAGL (Q99685 whole entry): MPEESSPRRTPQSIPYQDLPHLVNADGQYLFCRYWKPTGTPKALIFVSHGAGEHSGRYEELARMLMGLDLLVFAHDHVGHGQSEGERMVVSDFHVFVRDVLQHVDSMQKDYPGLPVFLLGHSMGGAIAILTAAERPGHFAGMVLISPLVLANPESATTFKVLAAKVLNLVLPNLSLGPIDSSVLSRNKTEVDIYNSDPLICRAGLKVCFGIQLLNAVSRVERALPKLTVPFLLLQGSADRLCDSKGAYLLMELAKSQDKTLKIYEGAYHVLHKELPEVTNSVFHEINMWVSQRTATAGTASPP

Compound | IC50 [1] | IC50 [2]
3-(5-(1,3,4-oxadiazol-2-yl pyridin-3-yl)phenyl pentylcarbamate [Example 127] | > 50000 nM | 10 to 100 nM
3-(5-(1,3,4-oxadiazol-2-yl)134 pyridine-3-yl)phenyl heptylcarbamate [Example 129] | > 10000 nM | 1 to 10 nM
CCCCCNC(=O)Oc1cccc(-c2cncc(C(=O)OCC)c2)c1 [Example 1, ethyl 5-(3-((pentylcarbamoyl)oxy)phenyl)nicotinate] |  | 10 to 100 nM
CCCCCCCNC(=O)Oc1cccc(-c2cncc(C(=O)OCC)c2)c1 [Example 2, ethyl 5-(3-((heptylcarbamoyl)oxy)phenyl)nicotinate] | 1000 to 10000 nM | 10 to 100 nM
CCCCCCCCNC(=O)Oc1cccc(-c2cncc(C(=O)OCC)c2)c1 [Example 3, ethyl 5-(3-((octylcarbamoyl)oxy)phenyl)nicotinate] |  | 10 to 100 nM
CCCCCCCCCCCCCCNC(=O)Oc1cccc(-c2cncc(C(=O)OCC)c2)c1 [Example 4, ethyl 5-(3-((tetradecylcarbamoyl)oxy)phenyl)nicotinate] | 1000 to 10000 nM | 1 to 10 nM
CCOC(=O)c1cncc(-c2cccc(OC(=O)NC3CCCC3)c2)c1 [Example 5, ethyl 5-(3-((cyclopentylcarbamoyl)oxy)phenyl)nicotinate] | > 10000 nM | 10 to 100 nM
CCOC(=O)c1cncc(-c2cccc(OC(=O)NC3CCCCC3)c2)c1 [Example 6, ethyl 5-(3-((cyclohexylcarbamoyl)oxy)phenyl)nicotinate] | > 100 nM | > 100 nM
CCOC(=O)c1cncc(-c2cccc(OC(=O)Nc3ccc(F)cc3)c2)c1 [Example 7, ethyl 5-(3-(((4-fluorophenyl)carbamoyl)oxy)phenyl)nicotinate] | > 10000 nM | > 1000 nM
CCCCCNC(=O)Oc1cccc(-c2cncc(C(=O)OC)c2)c1 [Example 8, methyl 5-(3-((pentylcarbamoyl)oxy)phenyl)nicotinate] |  | 10 to 100 nM
CCCCCCCNC(=O)Oc1cccc(-c2cncc(C(=O)OC)c2)c1 [Example 9, methyl 5-(3-((heptylcarbamoyl)oxy)phenyl)nicotinate] |  | 1 to 10 nM
CCCCCCCCNC(=O)Oc1cccc(-c2cncc(C(=O)OC)c2)c1 [Example 10, methyl 5-(3-((octylcarbamoyl)oxy)phenyl)nicotinate] |  | 1 to 10 nM
COC(=O)c1cncc(-c2cccc(OC(=O)NC3CCCC3)c2)c1 [Example 11, methyl 5-(3-((cyclopentylcarbamoyl)oxy)phenyl)nicotinate] | > 10000 nM | 10 to 100 nM
COC(=O)c1cncc(-c2cccc(OC(=O)NC3CCCCC3)c2)c1 [Example 12, methyl 5-(3-((cyclohexylcarbamoyl)oxy)phenyl)nicotinate] | > 10000 nM | 10 to 100 nM
COC(=O)c1cncc(-c2cccc(OC(=O)NC34CC5CC(CC(C5)C3)C4)c2)c1 [Example 13, methyl 5-(3-((((1s,3s)-adamantan-1-yl)carbamoyl)oxy)phenyl)nicotinate] | > 10000 nM | > 1000 nM
CCCCCNC(=O)Oc1cccc(-c2cncc(C=O)c2)c1 [Example 14, 3-(5-formylpyridin-3-yl)phenyl pentylcarbamate] | 10000 to 50000 nM | 10 to 100 nM
CCCCCCCNC(=O)Oc1cccc(-c2cncc(C=O)c2)c1 [Example 15, 3-(5-formylpyridin-3-yl)phenyl heptylcarbamate] | 10000 to 50000 nM | 10 to 100 nM
CCCCCCCCNC(=O)Oc1cccc(-c2cncc(C=O)c2)c1 [Example 16, 3-(5-formylpyridin-3-yl)phenyl octylcarbamate] | 1000 to 10000 nM | 10 to 100 nM

Compound | IC50 [1] | IC50 [2]
O=Cc1cncc(-c2cccc(OC(=O)NCC3CCCCC3)c2)c1 [Example 17, 3-(5-formylpyridin-3-yl)phenyl (cyclohexylmethyl)carbamate] | > 10000 nM | 10 to 100 nM
CCCCCCCNC(=O)Oc1cccc(-c2cncc(C#N)c2)c1 [Example 26, 3-(5-cyanopyridin-3-yl)phenyl heptylcarbamate] |  | 10 to 100 nM
CCCCCCCCNC(=O)Oc1cccc(-c2cncc(C#N)c2)c1 [Example 27, 3-(5-cyanopyridin-3-yl)phenyl octylcarbamate] |  | 10 to 100 nM
CCCCCCCCNC(=O)Oc1cccc(-c2cncc(C(F)(F)F)c2)c1 [Example 30, 3-(5-(trifluoromethyl)pyridin-3-yl)phenyl octylcarbamate] |  | 10 to 100 nM
CCCCCCCCNC(=O)Oc1ccc(OC)c(-c2cncc(-c3ccc[nH]3)c2)c1 [Example 41, 3-(5-(1H-pyrrol-2-yl)pyridin-3-yl)-4-methoxyphenyl octylcarbamate] |  | 10 to 100 nM
CCCCCCCCNC(=O)Oc1cccc(-c2cncc(-c3ccco3)c2)c1 [Example 47, 3-(5-(furan-2-yl)pyridin-3-yl)phenyl octylcarbamate] |  | 1 to 10 nM
CCCCCCCCNC(=O)Oc1ccc(OC)c(-c2cncc(-c3cccs3)c2)c1 [Example 65, 4-methoxy-3-(5-(thiophen-2-yl)pyridin-3-yl)phenyl octylcarbamate] |  | 10 to 100 nM
CCCCCCCCNC(=O)Oc1ccc(OC(F)(F)F)c(-c2cncc(-c3ncco3)c2)c1 [Example 88, 3-(5-(oxazol-2-yl)pyridin-3-yl)-4-(trifluoromethoxy)phenyl octylcarbamate] |  | 10 to 100 nM
CCCCCCNC(=O)Oc1cccc(-c2cncc(-c3nnco3)c2)c1 [Example 128, 3-(5-(1,3,4-oxadiazol-2-yl)pyridin-3-yl)phenyl hexylcarbamate] |  | 10 to 20 nM
CCCCCCCCNC(=O)Oc1cccc(-c2cncc(-c3nnco3)c2)c1 [Example 130, 3-(5-(1,3,4-oxadiazol-2-yl)pyridine-3-yl)phenyl octylcarbamate] |  | 1 to 10 nM
CCCCCCCCCCCCNC(=O)Oc1cccc(-c2cncc(-c3nnco3)c2)c1 [Example 131, 3-(5-(1,3,4-oxadiazol-2-yl)pyridin-3-yl)phenyl dodecylcarbamate] |  | 10 to 20 nM
CCCCCCCNC(=O)Oc1ccc(O)c(-c2cncc(-c3nnco3)c2)c1 [Example 156, 3-(5-(1,3,4-oxadiazol-2-yl)pyridin-3-yl)-4-hydroxyphenyl heptylcarbamate] |  | 1 to 10 nM
CCCCCCCCNC(=O)Oc1ccc(O)c(-c2cncc(-c3nnco3)c2)c1 [Example 157, 3-(5-(1,3,4-oxadiazol-2-yl)pyridin-3-yl)-4-hydroxyphenyl octylcarbamate] |  | 1 to 10 nM
CCCCCCCNC(=O)Oc1ccc(OC)c(-c2cncc(-c3nnco3)c2)c1 [Example 166, 3-(5-(1,3,4-oxadiazol-2-yl)pyridin-3-yl)-4-methoxyphenyl heptylcarbamate] |  | 10 to 100 nM
CCCCCCCCNC(=O)Oc1ccc(OC)c(-c2cncc(-c3nnco3)c2)c1 [Example 167, 3-(5-(1,3,4-oxadiazol-2-yl)pyridin-3-yl)-4-methoxyphenyl octylcarbamate] |  | 1 to 10 nM
COc1ccc(OC(=O)NC2CCCCC2)cc1-c1cncc(-c2nncs2)c1 [Example 217, 3-(5-(1,3,4-thiadiazol-2-yl)pyridin-3-yl)-4-methoxyphenyl cyclohexylcarbamate] |  | 100 to 1000 nM
O=C(NC1CCCCC1)Oc1cccc(-c2cc(-c3nnco3)ccn2)c1 [Example 260, 3-(4-(1,3,4-oxadiazol-2-yl)pyridin-2-yl)phenyl cyclohexylcarbamate] | > 10000 nM | 
